Results: patent US10160747B2, “Compounds and methods for kinase modulation, and indications therefor” (Plexxikon Inc., priority 2016, dated 2018)

What was measured:
[1] = molecular target: T1, FLT3-D835Y (Homo sapiens, UniProt P36888, D835Y); assay: FLT3-D835Y recombinant enzyme kinase assay (AlphaScreen); assay type: biochemical; details: 8 pt, GMean
T1 construct: purchased Invitrogen PV3967
T1 sequence (P36888 27-993 D835Y): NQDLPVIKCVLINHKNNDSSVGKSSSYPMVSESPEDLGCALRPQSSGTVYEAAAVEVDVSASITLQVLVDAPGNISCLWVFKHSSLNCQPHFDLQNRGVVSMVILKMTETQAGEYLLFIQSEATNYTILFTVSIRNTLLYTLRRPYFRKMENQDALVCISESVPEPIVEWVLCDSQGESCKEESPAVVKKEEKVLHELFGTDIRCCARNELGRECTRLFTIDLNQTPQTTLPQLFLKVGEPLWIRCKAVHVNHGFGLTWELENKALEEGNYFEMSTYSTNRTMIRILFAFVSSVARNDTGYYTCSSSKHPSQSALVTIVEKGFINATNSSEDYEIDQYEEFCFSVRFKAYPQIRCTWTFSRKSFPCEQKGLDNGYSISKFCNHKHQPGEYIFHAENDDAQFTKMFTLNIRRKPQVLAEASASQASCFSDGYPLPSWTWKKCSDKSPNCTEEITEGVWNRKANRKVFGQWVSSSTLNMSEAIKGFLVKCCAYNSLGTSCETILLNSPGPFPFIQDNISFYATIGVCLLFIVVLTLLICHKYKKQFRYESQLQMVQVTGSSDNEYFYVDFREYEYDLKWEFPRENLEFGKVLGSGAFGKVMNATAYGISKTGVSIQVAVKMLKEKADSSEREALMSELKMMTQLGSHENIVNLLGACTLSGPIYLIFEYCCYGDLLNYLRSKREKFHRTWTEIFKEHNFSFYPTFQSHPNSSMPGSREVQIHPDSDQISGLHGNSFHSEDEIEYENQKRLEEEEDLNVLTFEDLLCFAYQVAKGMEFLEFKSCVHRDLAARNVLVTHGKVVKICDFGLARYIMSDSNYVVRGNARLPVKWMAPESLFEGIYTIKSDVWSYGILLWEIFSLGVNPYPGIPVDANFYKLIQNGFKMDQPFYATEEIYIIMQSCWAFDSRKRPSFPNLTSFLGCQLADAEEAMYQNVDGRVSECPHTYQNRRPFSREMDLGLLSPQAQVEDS
How it was run: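 Recombinant enzyme phosphorylated biotinylated poly(Glu4-Tyr) peptide (30 nM final) with ATP at 10 μM for FLT3-ITD and FLT3-D835Y or 100 μM for c-KIT. Phosphopeptide was detected by AlphaScreen with streptavidin donor and anti-phosphotyrosine (PY20) acceptor beads (10 μg/mL), read at 580 nm, for IC50 determination.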

[2] = molecular target: CSF1R (Homo sapiens, UniProt P07333); assay: CSF1R 100 ATP 8 pt kinase assay (Table 6); assay type: biochemical
Chain of CSF1R (P07333 20-972, species assumed): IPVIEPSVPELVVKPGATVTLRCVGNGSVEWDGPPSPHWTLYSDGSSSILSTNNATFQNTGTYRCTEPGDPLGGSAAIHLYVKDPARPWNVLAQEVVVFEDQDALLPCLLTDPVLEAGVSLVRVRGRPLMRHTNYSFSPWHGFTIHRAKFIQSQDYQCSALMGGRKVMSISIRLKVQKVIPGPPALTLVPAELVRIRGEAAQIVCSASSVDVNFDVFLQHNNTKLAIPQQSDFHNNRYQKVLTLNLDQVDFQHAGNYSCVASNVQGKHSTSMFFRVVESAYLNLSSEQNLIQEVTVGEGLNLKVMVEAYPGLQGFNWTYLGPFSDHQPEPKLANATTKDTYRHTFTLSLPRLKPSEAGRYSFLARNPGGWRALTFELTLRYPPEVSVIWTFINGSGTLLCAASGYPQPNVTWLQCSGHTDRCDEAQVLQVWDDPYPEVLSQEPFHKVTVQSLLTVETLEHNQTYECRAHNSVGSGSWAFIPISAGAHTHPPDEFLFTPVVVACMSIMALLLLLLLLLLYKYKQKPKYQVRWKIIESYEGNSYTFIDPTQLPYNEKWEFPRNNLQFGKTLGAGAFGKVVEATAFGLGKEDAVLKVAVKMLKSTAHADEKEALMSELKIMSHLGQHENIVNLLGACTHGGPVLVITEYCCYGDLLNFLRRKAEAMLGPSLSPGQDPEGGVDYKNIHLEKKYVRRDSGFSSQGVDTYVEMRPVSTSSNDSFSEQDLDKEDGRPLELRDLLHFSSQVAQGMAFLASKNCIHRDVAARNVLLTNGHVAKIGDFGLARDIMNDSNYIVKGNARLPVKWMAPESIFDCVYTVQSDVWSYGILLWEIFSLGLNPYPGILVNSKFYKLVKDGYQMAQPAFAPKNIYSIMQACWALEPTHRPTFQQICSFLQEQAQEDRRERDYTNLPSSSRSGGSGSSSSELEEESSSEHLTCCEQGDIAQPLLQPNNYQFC
From the text: The following Table 6 provides data indicating FLT3 ITD, D835Y and F691L; c-KIT and CSF1R biochemical and/or cell inhibitory activity for exemplary compounds as described herein.

Row | IC50 [1] | IC50 [2] | SMILES
1 | 0.0001 to 10 µM |  | CCn1cc(Nc2ncc(-c3ccc(CC(=O)Nc4cnc(OC)c(C(F)(F)F)c4)c(F)c3)cn2)cn1 [Compound P-0259, 2-[4-[2-[(1-ethylpyrazol-4-yl)amino]pyrimidin-5-yl]-2-fluoro-phenyl]-N-[6-methoxy-5-(trifluoromethyl)-3-pyridyl]acetamide]
2 | 0.0001 to 10 µM |  | CCn1cc(Nc2ncc(-c3ccc(CC(=O)Nc4cnc(Cl)c(C(F)(F)F)c4)c(F)c3)cn2)cn1 [Compound P-0260, N-[6-chloro-5-(trifluoromethyl)-3-pyridyl]-2-[4-[2-[(1-ethylpyrazol-4-yl)amino]pyrimidin-5-yl]-2-fluoro-phenyl]acetamide]
3 | 0.0001 to 10 µM |  | CCn1cc(Nc2ncc(-c3ccc(CC(=O)Nc4cnc(C)c(C(F)(F)F)c4)c(F)c3)cn2)cn1 [Compound P-0261, 2-[4-[2-[(1-ethylpyrazol-4-yl)amino]pyrimidin-5-yl]-2-fluoro-phenyl]-N-[6-methyl-5-(trifluoromethyl)-3-pyridyl]acetamide]
4 | 0.0001 to 10 µM |  | COc1ncc(NC(=O)Cc2ccc(-c3cnc4[nH]nc(C5CC5)c4c3)cc2F)cc1C(F)(F)F [Compound P-0262, 2-[4-(3-cyclopropyl-1H-pyrazolo[3,4-b]pyridin-5-yl)-2-fluoro-phenyl]-N-[6-methoxy-5-(trifluoromethyl)-3-pyridyl]acetamide]
5 | 0.0001 to 10 µM |  | COc1ncc(NC(=O)Cc2ccc(-c3cnc4[nH]nc(C5CC5)c4c3)cc2)cc1C(F)(F)F [Compound P-0263, 2-[4-(3-cyclopropyl-1H-pyrazolo[3,4-b]pyridin-5-yl)phenyl]-N-[6-methoxy-5-(trifluoromethyl)-3-pyridyl]acetamide]
6 | 0.0001 to 10 µM |  | COCCn1cc(Nc2ncc(-c3ccc(CC(=O)Nc4cnc(OC)c(C(F)(F)F)c4)c(F)c3)cn2)cn1 [Compound P-0265, 2-[2-fluoro-4-[2-[[1-(2-methoxyethyl)pyrazol-4-yl]amino]pyrimidin-5-yl]phenyl]-N-[6-methoxy-5-(trifluoromethyl)-3-pyridyl]acetamide]
7 | 0.0001 to 10 µM |  | COCCn1cc(Nc2ncc(-c3ccc(CC(=O)Nc4cnc(Cl)c(C(F)(F)F)c4)c(F)c3)cn2)cn1 [Compound P-0266, N-[6-chloro-5-(trifluoromethyl)-3-pyridyl]-2-[2-fluoro-4-[2-[[1-(2-methoxyethyl)pyrazol-4-yl]amino]pyrimidin-5-yl]phenyl]acetamide]
8 | 0.0001 to 10 µM |  | COCCn1cc(Nc2ncc(-c3ccc(CC(=O)Nc4cncc(C(F)(F)F)c4)c(F)c3)cn2)cn1 [Compound P-0267, 2-[2-fluoro-4-[2-[[1-(2-methoxyethyl)pyrazol-4-yl]amino]pyrimidin-5-yl]phenyl]-N-[5-(trifluoromethyl)-3-pyridyl]acetamide]
9 | 0.0001 to 10 µM |  | COCCn1cc(Nc2ncc(-c3ccc(CC(=O)Nc4ccc(C(F)(F)F)nc4)c(F)c3)cn2)cn1 [Compound P-0268, 2-[2-fluoro-4-[2-[[1-(2-methoxyethyl)pyrazol-4-yl]amino]pyrimidin-5-yl]phenyl]-N-[6-(trifluoromethyl)-3-pyridyl]acetamide]
10 | 0.0001 to 10 µM |  | COCCn1cc(Nc2ncc(-c3ccc(CC(=O)Nc4ccc(C(F)(F)F)cn4)c(F)c3)cn2)cn1 [Compound P-0269, 2-[2-fluoro-4-[2-[[1-(2-methoxyethyl)pyrazol-4-yl]amino]pyrimidin-5-yl]phenyl]-N-[5-(trifluoromethyl)-2-pyridyl]acetamide]
11 | 0.0001 to 10 µM |  | COCCn1cc(Nc2ncc(-c3ccc(CC(=O)Nc4cc(C(F)(F)F)ccn4)c(F)c3)cn2)cn1 [Compound P-0270, 2-[2-fluoro-4-[2-[[1-(2-methoxyethyl)pyrazol-4-yl]amino]pyrimidin-5-yl]phenyl]-N-[4-(trifluoromethyl)-2-pyridyl]acetamide]
12 | 0.0001 to 10 µM |  | COCCn1cc(Nc2ncc(-c3ccc(CC(=O)Nc4cnc(OC)c(C(F)(F)F)c4)cc3)cn2)cn1 [Compound P-0271, 2-[4-[2-[[1-(2-methoxyethyl)pyrazol-4-yl]amino]pyrimidin-5-yl]phenyl]-N-[6-methoxy-5-(trifluoromethyl)-3-pyridyl]acetamide]
13 | 0.0001 to 10 µM |  | COCCn1cc(Nc2ncc(-c3ccc(CC(=O)Nc4ccc(C(F)(F)F)nc4)cc3)cn2)cn1 [Compound P-0273, 2-[4-[2-[[1-(2-methoxyethyl)pyrazol-4-yl]amino]pyrimidin-5-yl]phenyl]-N-[6-(trifluoromethyl)-3-pyridyl]acetamide]
14 | 0.0001 to 10 µM |  | COCCn1cc(Nc2ncc(-c3ccc(CC(=O)Nc4ccc(C(F)(F)F)cn4)cc3)cn2)cn1 [Compound P-0274, 2-[4-[2-[[1-(2-methoxyethyl)pyrazol-4-yl]amino]pyrimidin-5-yl]phenyl]-N-[5-(trifluoromethyl)-2-pyridyl]acetamide]

Continued, molecule first:

Row | SMILES | IC50 [1] | IC50 [2]
15 | COc1ncc(NC(=O)Cc2ccc(-c3cnc4[nH]nc(OC)c4c3)cc2)cc1C(F)(F)F [Compound P-0212, 2-[4-(3-methoxy-1H-pyrazolo[3,4-b]pyridin-5-yl)phenyl]-N-[6-methoxy-5-(trifluoromethyl)-3-pyridyl]acetamide] | 0.0001 to 10 µM | 0.0001 to 10 µM
16 | CCOc1n[nH]c2ncc(-c3ccc(CC(=O)Nc4cnc(OC)c(C(F)(F)F)c4)cc3)cc12 [Compound P-0213, 2-(4-(3-ethoxy-1H-pyrazolo[3,4-b]pyridin-5-yl)phenyl)-N-(6-methoxy-5-(trifluoromethyl)pyridin-3-yl)acetamide] | 0.0001 to 10 µM | 0.0001 to 10 µM
17 | COc1ncc(NC(=O)Cc2ccc(-c3cnc4[nH]nc(NC(=O)C(F)(F)F)c4c3)cc2)cc1C(F)(F)F [Compound P-0215, 2,2,2-trifluoro-N-[5-[4-[2-[[6-methoxy-5-(trifluoromethyl)-3-pyridyl]amino]-2-oxo-ethyl]phenyl]-1H-pyrazolo[3,4-b]pyridin-3-yl]acetamide] | 0.0001 to 10 µM | 0.0001 to 10 µM
18 | CCn1cc(Nc2ncc(-c3ccc(CC(=O)Nc4ccc(C(F)(F)F)cn4)cc3)cn2)cn1 [Compound P-0251, 2-[4-[2-[(1-ethylpyrazol-4-yl)amino]pyrimidin-5-yl]phenyl]-N-[5-(trifluoromethyl)-2-pyridyl]acetamide] | 0.0001 to 10 µM | 
19 | CCn1cc(Nc2ncc(-c3ccc(CC(=O)Nc4ccc(C(F)(F)F)nc4)cc3)cn2)cn1 [Compound P-0252, 2-[4-[2-[(1-ethylpyrazol-4-yl)amino]pyrimidin-5-yl]phenyl]-N-[6-(trifluoromethyl)-3-pyridyl]acetamide] | 0.0001 to 10 µM | 
20 | CCn1cc(Nc2ncc(-c3ccc(CC(=O)Nc4cnc(OC)c(C(F)(F)F)c4)cc3)cn2)cn1 [Compound P-0253, 2-[4-[2-[(1-ethylpyrazol-4-yl)amino]pyrimidin-5-yl]phenyl]-N-[6-methoxy-5-(trifluoromethyl)-3-pyridyl]acetamide] | 0.0001 to 10 µM | 
21 | CCn1cc(Nc2ncc(-c3ccc(CC(=O)Nc4cnc(C)c(C(F)(F)F)c4)cc3)cn2)cn1 [Compound P-0254, 2-[4-[2-[(1-ethylpyrazol-4-yl)amino]pyrimidin-5-yl]phenyl]-N-[6-methyl-5-(trifluoromethyl)-3-pyridyl]acetamide] | 0.0001 to 10 µM | 
22 | CCn1cc(Nc2ncc(-c3ccc(CC(=O)Nc4cc(C(F)(F)F)ccn4)c(F)c3)cn2)cn1 [Compound P-0255, 2-[4-[2-[(1-ethylpyrazol-4-yl)amino]pyrimidin-5-yl]-2-fluoro-phenyl]-N-[4-(trifluoromethyl)-2-pyridyl]acetamide] | 0.0001 to 10 µM | 
23 | CCn1cc(Nc2ncc(-c3ccc(CC(=O)Nc4ccc(C(F)(F)F)cn4)c(F)c3)cn2)cn1 [Compound P-0256, 2-[4-[2-[(1-ethylpyrazol-4-yl)amino]pyrimidin-5-yl]-2-fluoro-phenyl]-N-[5-(trifluoromethyl)-2-pyridyl]acetamide] | 0.0001 to 10 µM | 
24 | CCn1cc(Nc2ncc(-c3ccc(CC(=O)Nc4ccc(C(F)(F)F)nc4)c(F)c3)cn2)cn1 [Compound P-0257, 2-[4-[2-[(1-ethylpyrazol-4-yl)amino]pyrimidin-5-yl]-2-fluoro-phenyl]-N-[6-(trifluoromethyl)-3-pyridyl]acetamide] | 0.0001 to 10 µM | 
25 | CCn1cc(Nc2ncc(-c3ccc(CC(=O)Nc4cncc(C(F)(F)F)c4)c(F)c3)cn2)cn1 [Compound P-0258, 2-[4-[2-[(1-ethylpyrazol-4-yl)amino]pyrimidin-5-yl]-2-fluoro-phenyl]-N-[5-(trifluoromethyl)-3-pyridyl]acetamide] | 0.0001 to 10 µM | 
